Read-outs that look alike come from different tables or passages of the source.
Legend:
[1] = system: 7-ethoxyresorufin-o-deethylase (EROD) activity in a rainbow trout liver cell line (RTL-W1); test: Induction of EROD activity in RTL-W1 cells; format: cell-based; details: Oncorhynchus mykiss
Protocol: For toxicity tests, reporter cells or molecules are preferably added to chambers in an appropriate culture medium. An appropriate liquid culture medium is one that will maintain reporter cell vitality (or reporter molecule integrity) and support expression of a chosen endpoint in the toxicological test. For example for the experiment depicted in FIG. 8, liver cells from rainbow trout (RTL-W1 cells) were added in Leibovitz' L-15 medium that contained 5% fetal bovine serum as a supplement (Bols et al., 1999). The reporters are left to desorb or interact with the chemicals at the sampler surface for a predetermined time. […] After a predetermined exposure time, the reporter cells are evaluated for the expression of toxicity. […] Other examples of toxicological endpoints would be the disruption of metabolic activity or the loss of cell membrane integrity in cultured cells, which can be measured using the fluorescent indicator dyes alamar Blue and CFDA-AM (Schirmer et al., 2000a/b), or the modulation of light emission in luminescent bacteria (Bitton and Koopman, 1992). Although not essential to the method, the arrangement of chambers in a multiwell plate format and the use of fluorescent indicator dyes or light emission is advantageous because of recent developments in automated fluorescence/luminescence multiwell plate readers. Plates with […] can be analyzed in seconds. […]

[2] = Protocol: For these experiments fluoranthene was dissolved in the aqueous medium, L-15/ex, to yield 297 nM (60 ng/ml) of fluoranthene. The fluoranthene solution was added once to empty wells of tissue culture plates, and 10 min, 2, 4, and 24 h later, the medium was removed and culture wells extracted with methanol in order to solubilize fluoranthene that had adsorbed to the culture surface. The concentration of fluoranthene in the methanol extracts was subsequently determined by high performance liquid chromatography (HPLC) and expressed as a percentage of the initial concentration, 297 nM.

Work on `c1ccc2cc3c(cc2c1)-c1cccc2cccc-3c12` [BkF, benzo[k]fluoranthene] yielded an EC50 ([1]; BkF added in dissolved form to wells after cell attachment (conventional method), RTL-W1 cells, read-out: EC50 of EROD induction, dissolved BkF) of 8.6 nM and an EC50 ([1]; BkF adsorbed to polystyrene culture wells prior to cell attachment, RTL-W1 cells attached 24 h before EROD measurement, read-out: EC50 of EROD induction, sorbed BkF) of 10.4 nM.
With `c1ccc2c(c1)-c1cccc3cccc-2c13` [fluoranthene] the “binding of fluoranthene by polystyrene of tissue culture plates” value ([2]; 297 nM in L-15/ex, 10 min, 2, 4, 24 h) was “high affinity” and the “time of exposure until sorption equilibrium is reached” value ([2]; single dose 297 nM (60 ng/ml) in L-15/ex in empty wells, methanol extract, HPLC) was “less than 24 h”.

Source: US7186565B2, “Sampling and toxicity monitoring device and method” (priority 2001, dated 2007)
